Laboratory results taken from patent US10457707B2, “Substituted urea depsipeptide analogs as activators of the CLPP endopeptidase” (priority 2015, dated 2019).
Values after ≈ are worked out from the molar mass of the structure shown. *1 amine or outer side, *2 acyl side, *3 side chain or, on linkers, in order; H or OH if unused. Where a SMILES comes first, the peptide text is derived from it. Bridges are numbered along the chain shown (N, C = ends). [ ]: non-standard residue; d: D form. The star is where a group is joined. X15 = O=C([C@@H]1C[C@@H](OP(=O)(O)O)CN1[*:1])[*:2]; Phe(3,5-F2) = N[C@@H](Cc1cc(F)cc(F)c1)C(=O)O; Morpholine(3S-CO) = O=C(O)[C@@H]1COCCN1; Pro(4S-Me) = C[C@@H]1CN[C@H](C(=O)O)C1; Pro(4R-Me) = C[C@H]1CN[C@H](C(=O)O)C1; NH(3,4-Me2-phenyl) = Cc1ccc(N*)cc1C; NH(4-Me-phenyl) = Cc1ccc(N*)cc1; aThr = C[C@H](O)[C@H](N)C(=O)O; Pip = O=C(O)[C@@H]1CCCCN1; NMeA = CN[C@@H](C)C(=O)O; CO = O=C([*:1])[*:2]

Columns and labels:
[1] = test system: Streptococcus pyogenes, ATCC 700294; assay: Minimal inhibitory concentration assay (microbroth dilution); format: cell-based; settings: Streptococcus pyogenes, ATCC700294, read-out: Minimal Inhibitory Concentrations S. pyogenes ATCC 700294
Outline: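 CLSI broth microdilution: two-fold serial compound dilutions in appropriate broth, inoculated and incubated aerobically overnight at 37° C. MIC read visually as lowest concentration preventing bacterial growth.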

[2] = test system: Staphylococcus aureus, ATCC 29213; assay: as above; format: cell-based; settings: ATCC29213, read-out: Minimal Inhibitory Concentrations S. aureus ATCC 29213
Outline: (§1)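 Antibacterial activity was measured by CLSI-standard microdilution in broth, using overnight aerobic incubation at 37 °C. Growth inhibition was scored visually, and MIC taken as the lowest concentration preventing growth.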

[3] = test system: Streptococcus pneumoniae, DAW27; assay: as above; format: cell-based; settings: DAW27, read-out: Minimal Inhibitory Concentrations S. pneumoniae DAW27
Outline: as §1

[4] = test system: Staphylococcus aureus, NRS70; assay: as above; format: cell-based; settings: Staphylococcus aureus, NRS70, read-out: Minimal Inhibitory Concentrations S. aureus NRS70
Outline: as §1

[5] = test system: Bacillus subtilis, ATCC 23857; assay: as above; format: cell-based; settings: Bacillus subtilis, ATCC23857, read-out: Minimal Inhibitory Concentrations B. subtilis ATCC 23857
Outline: as §1

[6] = test system: Enterococcus faecalis, ATCC 33186; assay: as above; format: cell-based; settings: Enterococcus faecalis, ATCC33186, read-out: Minimal Inhibitory Concentrations E. faecalis ATCC 33186
Outline: as §1

E. coli K12ΔtolC = assay: as above; format: cell-based
[7] = test system: Vero (kidney epithelial cells; ATCC CCL-81); assay: Cytotoxicity assay (CellTiter-Glo cell viability, 72 hours); format: cell-based; settings: Vero cells, 72 hours, growth inhibition; read-out: Cytotoxicity IC50
Outline: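 Vero cells, 5000/well, grown overnight at 37° C, 5% CO2 in DMEM with 10% FBS, then exposed to serial compound dilutions or DMSO for 72 hours. Viability read by CellTiter-Glo luminescence. IC50 from duplicate wells, reported as range over two independent experiments.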

physchem = settings: 22 °C, aqueous buffer, kinetic from dmso stock

## C[C@@H]1C[C@H]2C(=O)OC[C@H](NC(=O)[C@H](Cc3ccccc3)NC(=O)Nc3cccc(Cl)c3)C(=O)N3CCC[C@H]3C(=O)N3CCCC[C@H]3C(=O)N[C@@H](C)C(=O)N2C1 [Compound 9, (S)-2-(3-(3-chlorophenyl)ureido)-N-((2R,6S,8aS,14aS,20S,23aS)-2,6-dimethyl-5,8,14,19,23-pentaoxooctadecahydro-1H,5H,14H,19H-pyrido[2,1-i]dipyrrolo[2,1-c:2′,1′-l][1]oxa[4,7,10,13]tetraazacyclohexadecin-20-yl)-3-phenylpropanamide]
[1]
  MIC: 1.56 µM (≈ 1.21 µg/mL)
[2]
  MIC: 3.13 µM (≈ 2.44 µg/mL)
[3]
  MIC: 0.78 µM (≈ 0.607 µg/mL)
[4]
  MIC: 1.56 µM (≈ 1.21 µg/mL)
[5]
  MIC: 1.56 µM (≈ 1.21 µg/mL)
[6]
  MIC: 1.56 µM (≈ 1.21 µg/mL)
E. coli K12ΔtolC
  Minimal Inhibitory Concentrations E. coli K12ΔtolC: 25 µM
[7]
  IC50: 89 ± 5 µM

## Cc1ccc(NC(=O)N[C@@H](Cc2cc(F)cc(F)c2)C(=O)N[C@@H]2C(=O)N3C[C@H](OP(=O)(O)O)C[C@H]3C(=O)N(C)[C@@H](C)C(=O)N[C@@H](C)C(=O)N3C[C@@H](C)C[C@H]3C(=O)O[C@H]2C)cc1 [Compound 187, (2S,6S,9S,11aS,13R,17S,18S,20aS)-17-((S)-3-(3,5-difluorophenyl)-2-(3-(p-tolyl)ureido)propanamido)-2,6,9,10,18-pentamethyl-5,8,11,16,20-pentaoxohexadecahydro-1H,5H,16H-dipyrrolo[2,1-c:2′,1′-l][1]oxa[4,7,10,13]tetraazacyclohexadecin-13-yl dihydrogen phosphate] ({NH(4-Me-phenyl)-CO}-[Phe(3,5-F2)][aThr][X15][NMeA]A[Pro(4S-Me)]; ester 2-C)
physchem
  solubility: 118 ± 1.4 µM

## Cc1ccc(NC(=O)N[C@@H](Cc2cc(F)cc(F)c2)C(=O)N[C@@H]2C(=O)N3C[C@H](OP(=O)(O)O)C[C@H]3C(=O)N3CCOC[C@H]3C(=O)N[C@@H](C)C(=O)N3C[C@H](C)C[C@H]3C(=O)O[C@H]2C)cc1C [Compound 189, (6aS,8R,12S,13S,15aS,17R,21S,23aS)-12-((S)-3-(3,5-difluorophenyl)-2-(3-(3,4-dimethylphenyl)ureido)propanamido)-13,17,21-trimethyl-6,11,15,20,23-pentaoxooctadecahydro-6H,11H,15H-[1,4]oxazino[3,4-i]dipyrrolo[2,1-c:2′,1′-L][1]oxa[4,7,10,13]tetraazacyclohexadecin-8-yl dihydrogen phosphate] ({NH(3,4-Me2-phenyl)-CO}-[Phe(3,5-F2)][aThr][X15][Morpholine(3S-CO)]A[Pro(4R-Me)]; ester 2-C)
physchem
  solubility: 117 ± 3.2 µM

## Cc1ccc(NC(=O)N[C@@H](Cc2cc(F)cc(F)c2)C(=O)N[C@@H]2C(=O)N3C[C@H](OP(=O)(O)O)C[C@H]3C(=O)N3CCCC[C@H]3C(=O)N[C@@H](C)C(=O)N3C[C@H](C)C[C@H]3C(=O)O[C@H]2C)cc1 [Compound 190, (2R,6S,8aS,14aS,16R,20S,21S,23aS)-20-((S)-3-(3,5-difluorophenyl)-2-(3-(p-tolyl)ureido)propanamido)-2,6,21-trimethyl-5,8,14,19,23-pentaoxooctadecahydro-1H,5H,14H,19H-pyrido[2,1-i]dipyrrolo[2,1-c:2′,1′-l][1]oxa[4,7,10,13]tetraazacyclohexadecin-16-yl dihydrogen phosphate] ({NH(4-Me-phenyl)-CO}-[Phe(3,5-F2)][aThr][X15][Pip]A[Pro(4R-Me)]; ester 2-C)
physchem
  solubility: 113 ± 3.9 µM
